Data published in patent US4201771A (priority 1979, dated 1980).
Read-outs that look alike come from different tables or passages of the source.

Key:
Type in all cases: in vivo
[1] = system: Puccinia recondita f. sp. tritici; conditions: untreated 27
[2] = system: Phytophthora infestans; conditions: untreated 84
[3] = system: Puccinia recondita f. sp. tritici; conditions: 1000 PPM; untreated 42
[4] = system: Piricularia oryzae; conditions: for Rice Blast Lesions/5th Leaf Protectant: Table 1, untreated 52; for Rice Blast Lesions per 5th Leaf: Table 2, protectant, untreated control 22
[5] = system: Piricularia oryzae; conditions: 1000 PPM; untreated 69
[6] = system: Rice, variety Calusa No. 2; assay: Phytotoxicity / injury on rice in greenhouse bioassay; conditions: Table 2, rice
Protocol: Host: Rice, variety Calusa No. 2.
Growth Conditions: Rice plants grown to 5 leaf stage in greenhouse on Swiss Farm Potting soil in 7 ounce styrafoam pots. Thinned to 3 seedlings per pot. Day temperature 20°-28° C.; night temperature 15°-20° C. Soluble 20--20--20 fertilizer applied weekly.
Treatment: Test solutions or suspensions of candidate compounds sprayed on both leaf surfaces to run-off with a No. 152 DiVilbiss atomizer at 10 psi. Formulations are prepared by dissolving compounds in methanol-Tween 20 mixture and bringing to volume with deionized water.

`S=C([S-])NCCNC(=S)[S-].[Mn+2]` [Maneb, [[1,2-Ethanediylbis[carbamodithioato]]-(2-)]manganese] was tested, and the “Wheat Leaf Rust Pustules/Leaf Protectant” value ([1]; 1 PPM) was 20, the “Wheat Leaf Rust Pustules/Leaf Protectant” value ([1]; 10 PPM) was 12 and the “Wheat Leaf Rust Pustules/Leaf Protectant” value ([1]; 100 PPM) was 0. For the same molecule, the “Late Blight (Tomato) Phytophthora % Leaf Necrosis Protectant” value ([2]; 1 PPM) was 77%, the “Late Blight (Tomato) Phytophthora % Leaf Necrosis Protectant” value ([2]; 10 PPM) was 63% and the “Late Blight (Tomato) Phytophthora % Leaf Necrosis Protectant” value ([2]; 100 PPM) was 11%.
With `CC1=C(C(=O)Nc2ccccc2)SCCO1` [Carboxin, 5,6Dihydro-2-methyl-N-phenyl-1,4-oxathiin-3-carboxamide] the “Wheat Leaf Rust Pustules/Leaf Systemic” value [3] was 4.
For `CCOP(=O)(Sc1ccccc1)Sc1ccccc1` [Hinosan, O-Ethyl 5,5-diphenylphosphorodithioate], the “Rice Blast Lesions/5th Leaf Protectant” value ([4]; 1 PPM) was 16, the “Rice Blast Lesions/5th Leaf Protectant” value ([4]; 10 PPM) was 8 and the “Rice Blast Lesions/5th Leaf Protectant” value ([4]; 100 PPM) was under 1. For the same molecule, the “Rice Blast Lesions/5th Leaf Systemic” value [5] was 31.
With `CCCCNC(=O)n1c(NC(=O)OC)nc2ccccc21` [Benomyl, [1-[(Butylamino)carbonyl]-1H-benzimidazol-2-yl]carbamic acid methyl ester] the “Remarks (plant injury)” value ([6]; 1 PPM) was “no injury”, the “Remarks (plant injury)” value ([6]; 10 PPM) was “no injury” and the “Remarks (plant injury)” value ([6]; 100 PPM) was “no injury”. For the same molecule, the “Rice Blast Lesions per 5th Leaf” value ([4]; 1 PPM) was 4, the “Rice Blast Lesions per 5th Leaf” value ([4]; 10 PPM) was 4 and the “Rice Blast Lesions per 5th Leaf” value ([4]; 100 PPM) was 0.1.
